# Source: US20200157088A1, “BENZENE FUSED HETEROCYCLIC COMPOUND AND USE THEREOF” (TAIWANJ PHARMACEUTICALS CO., LTD., priority 2017, published 2020)
# Biological target: T1, autotaxin (Homo sapiens, UniProt Q13822)
# T1 construct: purchased Cayman 10803
# Experiment: Autotaxin inhibitor screening assay (choline release from LPC)
# Type: biochemical
# Conditions: not given
# Procedure: Autotaxin activity was measured by choline release from LPC in presence or absence of compound.
# Twenty (20) ng autotaxin (10803, Cayman, MI, USA) was incubated with 100 μM 14:0 LPC (855575P, Avanti, AL, USA) in a final volume of 100 μL buffer containing 50 mM Tris pH 8.0, 0.01% Triton X-100, 50 mM CaCl2, 1 unit/ml choline oxidase, 2 unit/ml HRP, 2 mM homovanilic acid (HVA). The relative amount of released choline was measured by HVA fluorescence in a 96-well plate. Fluorescent intensity was determined at λex/λem=320/450 nm every 60 seconds for 90 minutes with a SpectraMax i3 (Molecular Devices, CA, USA). Data analysis was performed using GraphPad Prism (GraphPad, La Jolla Calif., USA).
# Inhibition %=[1−SlopeTA−SlopeBlank)/(Slopevehicle−SlopeBlank)]×100%
row,SMILES,inhibition at 1 µM [%]
1,CN(C(=O)OCc1cc(Cl)cc(Cl)c1)C1CCc2ccc(C3=CCN(CC(=O)N4CCC(=O)CC4)CC3)cc21 (centres unmarked) [Compound 11],50 to 80
2,CN(c1nc(-c2ccccc2)cs1)C1CCc2ccc(N3CCN(CC(=O)N4CC(O)C4)CC3)cc21 (centres unmarked) [Compound 44],< 50
3,CN(c1nc(-c2ccc(Cl)cc2)c(C#N)s1)C1CCCc2ccc(N3CCN(CC(=O)N4CC(O)C4)CC3)cc21 (centres unmarked) [Compound 51],< 50
4,Cc1cc(Cl)cc(COC(=O)N(C)C2CCc3ccc(C4=CCN(C(=O)CN5C(=O)CSC5=S)CC4)cc32)c1 (centres unmarked) [Compound 92],> 80

# Same assay, conditions: inhibition of autotaxin enzyme activity at 1 μM compound; 100 μM 14:0 LPC; read-out: Inhibition
row,SMILES,inhibition at 1 µM [%]
1,"CN(C(=O)OCc1cc(Cl)cc(Cl)c1)C1CCc2ccc(C3=CCN(CC(=O)N4CC(O)C4)CC3)cc21 (centres unmarked) [Compound 8, 3,5-dichlorobenzyl(6-(1-(2-(3-hydroxyazetidin-1-yl)-2-oxoethyl)-1,2,3,6-tetrahydropyridin-4-yl)-2,3-dihydro-1H-inden-1-yl)(methyl)carbamate]",50 to 80
2,"CN(C(=O)OCc1cc(Cl)cc(Cl)c1)C1CCc2ccc(C3=CCN(C(=O)CN4C(=O)CSC4=S)CC3)cc21 (centres unmarked) [Compound 9, 3,5-dichlorobenzyl methyl(6-(1-(2-(4-oxo-2-thioxothiazolidin-3-yl)acetyl)-1,2,3,6-tetrahydropyridin-4-yl)-2,3-dihydro-1H-inden-1-yl)carbamate]",> 80
3,CN(C(=O)OCc1cc(Cl)cc(Cl)c1)C1CCc2ccc(C3=CCN(CC(=O)N4CCOCC4)CC3)cc21 (centres unmarked) [Compound 10],50 to 80
4,CN(C(=O)OCc1cc(Cl)cc(Cl)c1)C1CCc2ccc(C3=CCN(CC(=O)N4CC[C@@H](O)C4)CC3)cc21 (some centres unmarked) [Compound 12],50 to 80
5,CN(C(=O)OCc1cc(Cl)cc(Cl)c1)C1CCc2ccc(C3=CCN(CC(=O)N4CCCC4)CC3)cc21 (centres unmarked) [Compound 13],< 50
6,CCN(CC)C(=O)CN1CC=C(c2ccc3c(c2)C(N(C)C(=O)OCc2cc(Cl)cc(Cl)c2)CC3)CC1 (centres unmarked) [Compound 14],< 50
7,CCOC(=O)N1CCN(C(=O)CN2CC=C(c3ccc4c(c3)C(N(C)C(=O)OCc3cc(Cl)cc(Cl)c3)CC4)CC2)CC1 (centres unmarked) [Compound 15],< 50
8,CN(C(=O)OCc1cc(Cl)cc(Cl)c1)C1CCc2ccc(C3=CCN(CC(=O)N4CCS(=O)(=O)CC4)CC3)cc21 (centres unmarked) [Compound 16],50 to 80
9,CN(C(=O)OCc1cc(Cl)cc(Cl)c1)C1CCc2ccc(C3=CCN(CC(=O)N4CCN(S(C)(=O)=O)CC4)CC3)cc21 (centres unmarked) [Compound 17],50 to 80
10,CN(C(=O)OCc1cc(Cl)cc(Cl)c1)C1CCc2ccc(C3=CCN(C(=O)CN4CCOCC4)CC3)cc21 (centres unmarked) [Compound 18],> 80
11,CN(C(=O)OCc1cc(Cl)cc(Cl)c1)C1CCc2ccc(C3=CCN(CC(=O)N4CCCC(O)C4)CC3)cc21 (centres unmarked) [Compound 19],< 50
12,CN(C(=O)OCc1cc(Cl)cc(Cl)c1)C1CCc2ccc(C3=CCN(CC(=O)NS(C)(=O)=O)CC3)cc21 (centres unmarked) [Compound 20],50 to 80
13,CN(C(=O)OCc1cc(Cl)cc(Cl)c1)C1CCc2ccc(C3=CCN(CC(=O)N(C)S(C)(=O)=O)CC3)cc21 (centres unmarked) [Compound 21],50 to 80
14,CN(C(=O)OCc1cc(Cl)cc(Cl)c1)C1CCc2ccc(C3=CCN(C(=O)CS(C)(=O)=O)CC3)cc21 (centres unmarked) [Compound 22],> 80
15,CN(C(=O)OCc1cc(Cl)cc(Cl)c1)C1CCc2ccc(C3=CCN(C(=O)C(=O)N4CCOCC4)CC3)cc21 (centres unmarked) [Compound 23],50 to 80
16,CN(C(=O)OCc1cc(Cl)cc(Cl)c1)C1CCc2ccc(C3=CCN(C(=O)CN4CC(O)C4)CC3)cc21 (centres unmarked) [Compound 24],< 50
17,CN(C(=O)OCc1cc(Cl)cc(Cl)c1)C1CCc2ccc(C3=CCN(C(=O)CN4CCN(S(C)(=O)=O)CC4)CC3)cc21 (centres unmarked) [Compound 25],> 80
18,CN(C(=O)OCc1cc(Cl)cc(Cl)c1)C1CCc2ccc(C3=CCN(C(=O)CN4C(=O)CCC4=O)CC3)cc21 (centres unmarked) [Compound 26],< 50
19,CN(C(=O)OCc1cc(Cl)cc(Cl)c1)C1CCc2ccc(C3=CCN(C(=O)CN4C(=O)C=CC4=O)CC3)cc21 (centres unmarked) [Compound 27],> 80
20,CN(C(=O)OCc1cc(Cl)cc(Cl)c1)C1CCc2ccc(C3=CCN(C(=O)CCN4C(=O)CSC4=S)CC3)cc21 (centres unmarked) [Compound 28],50 to 80
21,CN(C(=O)OCc1cc(Cl)cc(Cl)c1)C1CCc2ccc(C3=CCN(C(=O)CNS(C)(=O)=O)CC3)cc21 (centres unmarked) [Compound 29],> 80
22,CN(C(=O)OCc1cc(Cl)cc(Cl)c1)C1CCc2ccc(C3=CCN(C(=O)CN(C)S(C)(=O)=O)CC3)cc21 (centres unmarked) [Compound 30],> 80

row,SMILES,inhibition at 1 µM [%]
1,"CN(C(=O)OCc1cc(Cl)cc(Cl)c1)C1CCc2ccc(N3CCN(CC(=O)N4CC(O)C4)CC3)cc21 (centres unmarked) [Compound 33, 3,5-dichlorobenzyl (6-(4-(2-(3-hydroxyazetidin-1-yl)-2-oxoethyl)piperazin-1-yl)-2,3-dihydro-1H-inden-1-yl)(methyl)carbamate]",50 to 80
2,"CN(C(=O)OCc1cc(Cl)cc(Cl)c1)C1CCc2ccc(N3CCN(C(=O)CN4CCOCC4)CC3)cc21 (centres unmarked) [Compound 34, 3,5-dichlorobenzyl methyl(6-(4-(2-morpholinoacetyl)piperazin-1-yl)-2,3-dihydro-1H-inden-1-yl)carbamate]",50 to 80
3,CN(C(=O)OCc1cc(Cl)cc(Cl)c1)C1CCc2ccc(N3CCN(C(=O)CN4C(=O)CSC4=S)CC3)cc21 (centres unmarked) [Compound 36],> 80
4,CN(C(=O)OCc1cc(Cl)cc(Cl)c1)C1CCc2ccc(N3CCN(C(=O)CS(C)(=O)=O)CC3)cc21 (centres unmarked) [Compound 37],50 to 80
5,CN(C(=O)OCc1cc(Cl)cc(Cl)c1)C1CCCc2ccc(N3CCN(CC(=O)N4CC(O)C4)CC3)cc21 (centres unmarked) [Compound 38],< 50
6,"CN(c1nc(-c2ccc(F)cc2)cs1)C1CCc2ccc(N3CCN(CC(=O)N4CC(O)C4)CC3)cc21 (centres unmarked) [Compound 43, 2-(4-(3-((4-(4-fluorophenyl)thiazol-2-yl)(methyl)amino)-2,3-dihydro-1H-inden-5-yl)piperazin-1-yl)-1-(3-hydroxyazetidin-1-yl)ethan-1-one]",< 50
7,"CN(c1nc(-c2ccc(F)cc2)c(C#N)s1)C1CCc2ccc(N3CCN(CC(=O)N4CC(O)C4)CC3)cc21 (centres unmarked) [Compound 50, 4-(4-fluorophenyl)-2-((6-(4-(2-(3-hydroxyazetidin-1-yl)-2-oxoethyl)piperazin-1-yl)-2,3-dihydro-1H-inden-1-yl)(methyl)amino)thiazole-5-carbonitrile]",< 50
8,CN(c1nc(-c2ccc(Cl)cc2)c(C#N)s1)C1CCc2ccc(N3CCN(CC(=O)N4CC(O)C4)CC3)cc21 (centres unmarked) [Compound 52],< 50
9,CN(c1nc(-c2ccc(F)cc2)c(C#N)s1)C1CCCc2ccc(N3CCN(CC(=O)N4CC(O)C4)CC3)cc21 (centres unmarked) [Compound 53],< 50
10,CN(c1nc(-c2ccc(Cl)cc2)c(C#N)s1)C1CCc2ccc(N3CCN(C(=O)CN4C(=O)CSC4=S)CC3)cc21 (centres unmarked) [Compound 54],< 50
11,"CN(c1nc(-c2ccc(Cl)cc2)c(C#N)s1)C1CCc2ccc(C3=CCN(CC(=O)N4CC(O)C4)CC3)cc21 (centres unmarked) [Compound 58, 4-(4-chlorophenyl)-2-((6-(1-(2-(3-hydroxyazetidin-1-yl)-2-oxoethyl)-1,2,3,6-tetrahydropyridin-4-yl)-2,3-dihydro-1H-inden-1-yl)(methyl)amino)thiazole-5-carbonitrile]",< 50
12,CN(c1nc(-c2cc(Cl)cc(Cl)c2)c(C#N)s1)C1CCc2ccc(C3=CCN(CC(=O)N4CC(O)C4)CC3)cc21 (centres unmarked) [Compound 59],< 50
13,CCC1Cc2ccc(C3=CCN(CC(=O)N4CC(O)C4)CC3)cc2C1N(C)c1nc(-c2ccc(Cl)cc2)c(C#N)s1 (centres unmarked) [Compound 60],< 50
14,CCC1Cc2ccc(C3=CCN(CC(=O)N4CC(O)C4)CC3)cc2C1N(C)c1nc(-c2cc(Cl)cc(Cl)c2)c(C#N)s1 (centres unmarked) [Compound 61],< 50
15,"CN(C(=O)OCc1cc(Cl)cc(Cl)c1)c1coc2ccc(N3CCN(C(=O)CN4C(=O)CSC4=S)CC3)cc12 [Compound 66, 3,5-dichlorobenzyl methyl(5-(4-(2-(4-oxo-2-thioxothiazolidin-3-yl)acetyl)piperazin-1-yl)benzofuran-3-yl)carbamate]",> 80
16,"CN(C(=O)OCc1cc(Cl)cc(Cl)c1)c1coc2ccc(C3=CCN(C(=O)CN4C(=O)CSC4=S)CC3)cc12 [Compound 69, 3,5-dichlorobenzyl methyl(5-(1-(2-(4-oxo-2-thioxothiazolidin-3-yl)acetyl)-1,2,3,6-tetrahydropyridin-4-yl)benzofuran-3-yl)carbamate]",> 80
17,CN(CCOc1ccc(F)cc1F)C1CCc2ccc(N3CCN(CC(=O)N4CC(O)C4)CC3)cc21 (centres unmarked) [Compound 73],< 50
18,CN(CCOc1ccc(F)cc1F)C1CCCc2ccc(N3CCN(CC(=O)N4CC(O)C4)CC3)cc21 (centres unmarked) [Compound 74],< 50
19,"N#Cc1cn(Cc2coc3ccc(C4=CCN(CC(=O)N5CC(O)C5)CC4)cc23)nc1-c1ccc(Cl)cc1 [Compound 82, 3-(4-chlorophenyl)-1-((5-(1-(2-(3-hydroxyazetidin-1-yl)-2-oxoethyl)-1,2,3,6-tetrahydropyridin-4-yl)benzofuran-3-yl)methyl)-1H-pyrazole-4-carbonitrile]",< 50
20,CN(C(=O)OCc1cc(Cl)cc(Cl)c1)c1csc2ccc(C3=CCN(C(=O)CN4C(=O)CSC4=S)CC3)cc12 [Compound 85],> 80
21,CN(C(=O)OCc1cc(Cl)cc(C(F)(F)F)c1)C1CCc2ccc(C3=CCN(C(=O)CN4C(=O)CSC4=S)CC3)cc21 (centres unmarked) [Compound 93],> 80
